# Biological target: T1, human KCNK13 (Homo sapiens, UniProt Q9HB14)
# T1 construct: expressed in transfected cells
# T1 sequence (Q9HB14 1-408): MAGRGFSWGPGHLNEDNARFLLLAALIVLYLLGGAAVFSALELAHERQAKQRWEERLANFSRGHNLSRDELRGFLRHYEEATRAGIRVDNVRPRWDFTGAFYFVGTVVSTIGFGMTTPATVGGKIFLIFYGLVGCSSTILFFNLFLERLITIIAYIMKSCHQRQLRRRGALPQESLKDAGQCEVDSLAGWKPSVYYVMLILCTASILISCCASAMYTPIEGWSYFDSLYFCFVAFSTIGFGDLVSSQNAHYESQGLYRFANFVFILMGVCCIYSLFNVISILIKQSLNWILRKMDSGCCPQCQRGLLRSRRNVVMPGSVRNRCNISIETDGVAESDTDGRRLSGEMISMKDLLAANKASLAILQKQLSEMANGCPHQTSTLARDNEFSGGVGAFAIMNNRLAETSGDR
# Assay: KCNK13 antagonist activity, thallium (Tl+) flux FLIPR assay
# Format: cell-based
# Conditions: HEK 293 cells stably expressing human KCNK13; Tl+ sensitive dye, FLIPR; compounds 15 minutes prior to thallium sulfate; 10 point half log curves from 10 PM; read-out: hKCNK13 IC50
# How it was run: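 HEK 293 cells stably expressing human KCNK13 loaded with Tl+-sensitive dye for 1 h at room temperature. Compounds (10-point half-log curves) preincubated 15 min before thallium sulfate stimulus, fluorescence tracked by FLIPR. IC50 from ten-point curves, each point the mean of two wells.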
row,SMILES,IC50 [nM]
1,"Cc1nonc1-c1nc2ccncc2n1Cc1cccnc1 [Example 110, 3-methyl-4-[3-(pyridin-3-ylmethyl)imidazo[4,5-c]pyridin-2-yl]-1,2,5-oxadiazole]",< 500
2,"Nc1nonc1-c1nc2cc(Br)ccc2n1Cc1cccnc1 [Example 33, 4-[5-bromo-1-(pyridin-3-ylmethyl)benzimidazol-2-yl]-1,2,5-oxadiazol-3-amine]",< 50
3,"Cc1nonc1-c1nc2c(F)cccc2n1Cc1ccc(C#N)nn1 [Example 47, 6-[[4-fluoro-2-(4-methyl-1,2,5-oxadiazol-3-yl)benzimidazol-1-yl]methyl]pyridazine-3-carbonitrile]",< 200
4,"CCc1nsnc1-c1nc2ccccc2n1Cc1cccnc1 [Example 105, 3-ethyl-4-[1-(pyridin-3-ylmethyl)benzimidazol-2-yl]-1,2,5-thiadiazole]",< 200
5,"Nc1nonc1-c1nc2c(F)cccc2n1Cc1ccc(C(F)(F)F)nn1 (single isomer, unassigned) [Example 167, 4-(4-fluoro-1-((6-(trifluoromethyl)pyridazin-3-yl)methyl)-benzimidazol-2-yl)-1,2,5-oxadiazol-3-amine]",< 1000
6,"Cc1ocnc1-c1nc2ccccc2n1Cc1cccnc1 [Example 103, 5-methyl-4-[1-(pyridin-3-ylmethyl)benzimidazol-2-yl]oxazole]",< 200
7,"CCOc1cccc2nc(-c3nonc3C)n(Cc3ccncc3)c12 [Example 70, 3-[7-ethoxy-1-(pyridin-4-ylmethyl)benzimidazol-2-yl]-4-methyl-1,2,5-oxadiazole]",< 500
8,"CCS(=O)(=O)c1ccc(Cn2c(-c3nonc3C)nc3ccccc32)cn1 [Example 180, 3-(1-((6-(ethylsulfonyl)pyridin-3-yl)methyl)-benzimidazol-2-yl)-4-methyl-1,2,5-oxadiazole]",< 500
9,"Cc1nonc1-c1nc2ccccc2n1Cc1ccc(O)nc1 [Example 54, 5-[[2-(4-methyl-1,2,5-oxadiazol-3-yl)benzimidazol-1-yl]methyl]pyridin-2-ol]",< 500
10,"Cc1nonc1-c1nc2ccc(F)c(F)c2n1Cc1cnc(C#N)nc1 [Example 1, 5-[[6,7-difluoro-2-(4-methyl-1,2,5-oxadiazol-3-yl)benzimidazol-1-yl]methyl]pyrimidine-2-carbonitrile]",< 100
11,"Nc1conc1-c1nc2cccc(F)c2n1Cc1cccnn1 [Example 186, 3-(7-fluoro-1-(pyridazin-3-ylmethyl)-benzimidazol-2-yl)isoxazol-4-amine]",< 500
12,"Cc1nonc1-c1nc2cccnc2n1Cc1ccc(C#N)nn1 [Example 18, 6-[[2-(4-methyl-1,2,5-oxadiazol-3-yl)imidazo[4,5-b]pyridin-3-yl]methyl]pyridazine-3-carbonitrile]",< 500
13,"N#Cc1ncc(Cn2c(-c3nonc3N)nc3ccc(F)c(F)c32)cn1 [Example 2, 5-[[2-(4-amino-1,2,5-oxadiazol-3-yl)-6,7-difluoro-benzimidazol-1-yl]methyl]pyrimidine-2-carbonitrile]",< 50
14,"Cc1nonc1-c1nc2c(F)ccc(F)c2n1Cc1cnc(C#N)nc1 [Example 83, 5-[[4,7-difluoro-2-(4-methyl-1,2,5-oxadiazol-3-yl)benzimidazol-1-yl]methyl]pyrimidine-2-carbonitrile]",< 200
15,"Cc1nonc1-c1nc2ccccc2n1Cc1ccc[n+]([O-])c1 [Example 76, 3-methyl-4-[1-[(1-oxidopyridin-1-ium-3-yl)methyl]benzimidazol-2-yl]-1,2,5-oxadiazole]",< 500
16,"CCOc1ccc(Cn2c(-c3nonc3C)nc3c(F)cccc32)cn1 [Example 48, 3-[1-[(6-ethoxypyridin-3-yl)methyl]-4-fluoro-benzimidazol-2-yl]-4-methyl-1,2,5-oxadiazole]",< 1000
17,"Cc1nsnc1-c1nc2cccc(F)c2n1Cc1cccnn1 [Example 139, 3-(7-fluoro-1-(pyridazin-3-ylmethyl)-benzimidazol-2-yl)-4-methyl-1,2,5-thiadiazole]",< 100
18,"CNc1nonc1-c1nc2cccc(F)c2n1Cc1cccnn1 [Example 178, 4-(7-fluoro-1-(pyridazin-3-ylmethyl)-benzimidazol-2-yl)-N-methyl-1,2,5-oxadiazol-3-amine]",< 5000
19,"Cc1nonc1-c1nc2cccnc2n1Cc1ccc(C(F)(F)F)nc1 [Example 17, 3-methyl-4-[3-[[6-(trifluoromethyl)pyridin-3-yl]methyl]imidazo[4,5-b]pyridin-2-yl]-1,2,5-oxadiazole]",< 500
20,"COc1ccc(Cn2c(-c3nonc3C)nc3cccc(F)c32)cn1 [Example 43, 3-[7-fluoro-1-[(6-methoxypyridin-3-yl)methyl]benzimidazol-2-yl]-4-methyl-1,2,5-oxadiazole]",< 1000

row,SMILES,IC50 [nM]
1,"CNc1ccc(Cn2c(-c3nonc3C)nc3ccccc32)cn1 [Example 73, N-methyl-5-[[2-(4-methyl-1,2,5-oxadiazol-3-yl)benzimidazol-1-yl]methyl]pyridin-2-amine]",< 500
2,"Nc1nonc1-c1nc2cccnc2n1Cc1ccc(C(F)(F)F)nc1 [Example 19, 4-[3-[[6-(trifluoromethyl)pyridin-3-yl]methyl]imidazo[4,5-b]pyridin-2-yl]-1,2,5-oxadiazol-3-amine]",< 500
3,"COc1ccc(Cn2c(-c3nonc3N)nc3c(F)cccc32)nn1 (single isomer, unassigned) [Example 153, 4-(4-fluoro-1-((6-methoxypyridazin-3-yl)methyl)-benzimidazol-2-yl)-1,2,5-oxadiazol-3-amine]",< 200
4,"Cc1nonc1-c1nc2ccc(F)c(F)c2n1Cc1cccnn1 (single isomer, unassigned) [Example 170, 3-(6,7-difluoro-1-(pyridazin-3-ylmethyl)-benzimidazol-2-yl)-4-methyl-1,2,5-oxadiazole]",< 100
5,"Cc1nonc1-c1nc2ccccc2n1Cc1ccc(S(C)(=O)=O)nc1 [Example 58, 3-methyl-4-[1-[(6-(methylsulfonyl)pyridin-3-yl)methyl]benzimidazol-2-yl]-1,2,5-oxadiazole]",< 100
6,"Cc1nonc1-c1nc2cccnc2n1Cc1cccnn1 [Example 20, 3-methyl-4-[3-(pyridazin-3-ylmethyl)imidazo[4,5-b]pyridin-2-yl]-1,2,5-oxadiazole]",< 1000
7,"Cc1nonc1-c1nc2cccnc2n1Cc1cnc(C#N)nc1 [Example 165, 5-((2-(4-methyl-1,2,5-oxadiazol-3-yl)-3H-imidazo[4,5-b]pyridin-3-yl)methyl)pyrimidine-2-carbonitrile]",< 100
8,"Cc1cnoc1-c1nc2ccccc2n1Cc1cccnc1 [Example 130, 4-methyl-5-[1-(pyridin-3-ylmethyl)benzimidazol-2-yl]isoxazole]",< 100
9,"Cc1nonc1-c1nc2ccccc2n1Cc1ccncc1 [Example 98, 3-methyl-4-[1-(pyridin-4-ylmethyl)benzimidazol-2-yl]-1,2,5-oxadiazole]",< 100
10,"COc1cc(Cn2c(-c3nonc3N)nc3c(F)cccc32)ccn1 (single isomer, unassigned) [Example 184, 4-(4-fluoro-1-((2-methoxypyridin-4-yl)methyl)-benzimidazol-2-yl)-1,2,5-oxadiazol-3-amine]",< 100
11,"CCc1nonc1-c1nc2ccccc2n1Cc1cccnc1 [Example 116, 3-ethyl-4-[1-(pyridin-3-ylmethyl)benzimidazol-2-yl]-1,2,5-oxadiazole]",< 1000
12,"Cc1nonc1-c1nc2cc(F)cc(F)c2n1Cc1cccnc1 [Example 27, 3-[5,7-difluoro-1-(pyridin-3-ylmethyl)benzimidazol-2-yl]-4-methyl-1,2,5-oxadiazole]",< 50
13,"COc1cc(Cn2c(-c3nonc3N)nc3cccc(F)c32)ccn1 (single isomer, unassigned) [Example 183, 4-(7-fluoro-1-((2-methoxypyridin-4-yl)methyl)-benzimidazol-2-yl)-1,2,5-oxadiazol-3-amine]",< 100
14,"Nc1nsnc1-c1nc2c(F)cccc2n1Cc1cccnn1 (single isomer, unassigned) [Example 157, 4-(4-fluoro-1-(pyridazin-3-ylmethyl)-benzimidazol-2-yl)-1,2,5-thiadiazol-3-amine]",< 200
15,"Cc1nonc1-c1nc2c(F)ccc(F)c2n1Cc1cncnc1 [Example 84, 3-[4,7-difluoro-1-(pyrimidin-5-ylmethyl)benzimidazol-2-yl]-4-methyl-1,2,5-oxadiazole]",< 100
16,"N#Cc1nsnc1-c1nc2ccccc2n1Cc1cccnc1 [Example 99, 4-[1-(pyridin-3-ylmethyl)benzimidazol-2-yl]-1,2,5-thiadiazole-3-carbonitrile]",< 100
17,"Cc1nocc1-c1nc2ccccc2n1Cc1cccnc1 [Example 112, 3-methyl-4-[1-(pyridin-3-ylmethyl)benzimidazol-2-yl]isoxazole]",< 500
18,"Cc1nonc1-c1nc2ccc(F)cc2n1Cc1ccc(C#N)nc1 [Example 55, 5-[[6-fluoro-2-(4-methyl-1,2,5-oxadiazol-3-yl)benzimidazol-1-yl]methyl]pyridine-2-carbonitrile]",< 100
19,"Cn1nccc1-c1nc2ccccc2n1Cc1cccnc1 [Example 114, 2-(1-methylpyrazol-5-yl)-1-(pyridin-3-ylmethyl)benzimidazole]",< 1000
